Measurements published in patent publication US20040192625A1, “Adrenergic receptor overexpression in airway tissues for the treatment of airway obstructive diseases” (priority 2000, published 2004).
Several values for one entry are separate records, joined by “and”; a condition that tells them apart may be missing. Equal values may be shown once. Entries after “also recorded” stand apart in the source; their conditions may differ.

Tests used:
β2AR [1] = settings: membranes from nontransgenic cells, absence of GTP
Procedure: Radioligand Binding and cAMP Studies. To prepare membranes from lung tissue, lungs from an individual mouse were homogenized with a Polytron (Brinkman) in 10 ml of hypotonic lysis buffer (5 mM Tris, pH 7.4, 2 mM EDTA) containing the protease inhibitors leupeptin, aprotinin, benzamidine and soybean trypsin inhibitor (10 μg/ml each). Detached smooth muscle cells from primary cultures were processed similarly. Homogenates were centrifuged at 40,000×g for 10 min at 4° C. […] Competition data were fit to a two-site model when this fit was statistically (p<0.05) better than a one-site fit by F-test, using Prizm software (GraphPad, San Diego Calif.). Receptor density on the cell surface was assessed using methods previously described (24). […] After trypsin activity was neutralized by the addition of FCS, the cells were washed with PBS and resuspended in DMEM. […] Bound radioactivity was separated by filtration and washing over GF/C glass fiber filters. Cyclic AMP content of attached mouse smooth muscle cells in culture exposed to 10 µM isoproterenol or carrier for 10 min was measured by an acetylated radioimmunoassay method as described (19). Adenylyl cyclase activity was measured in membranes prepared as above using column chromatography as previously described (25).

β2AR [2] = target: β2AR (Mus musculus, UniProt P18762)
β2AR (Mus musculus, UniProt P18762), sequence (P18762 whole entry): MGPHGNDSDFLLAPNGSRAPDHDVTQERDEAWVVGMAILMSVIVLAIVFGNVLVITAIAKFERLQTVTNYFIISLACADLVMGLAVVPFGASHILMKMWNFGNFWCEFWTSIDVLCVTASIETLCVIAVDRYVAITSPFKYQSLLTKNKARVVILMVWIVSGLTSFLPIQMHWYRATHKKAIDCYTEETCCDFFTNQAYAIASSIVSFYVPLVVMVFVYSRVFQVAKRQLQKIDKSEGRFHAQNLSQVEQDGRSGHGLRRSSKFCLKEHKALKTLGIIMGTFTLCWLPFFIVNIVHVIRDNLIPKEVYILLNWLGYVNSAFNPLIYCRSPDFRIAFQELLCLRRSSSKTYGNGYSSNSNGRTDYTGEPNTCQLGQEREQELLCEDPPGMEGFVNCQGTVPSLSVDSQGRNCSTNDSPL
Procedure: (§1) FIG. 7. cAMP production and adenylyl cyclase activity in isolated tracheal smooth muscle cells. […] Results are from four independent experiments. (B) Adenylyl cyclase activity was measured in membranes prepared from tracheal smooth muscle cells of transgenic and nontransgenic mice. Reactions were carried out in the presence of the indicated concentrations of isoproterenol for 10 min at 37° C. Detection of [^32P]cAMP produced was determined by column chromatography. Shown is a representative dose response curve.
Radioligand Binding and cAMP Studies. To prepare membranes from lung tissue, lungs from an individual mouse were homogenized with a Polytron (Brinkman) in 10 ml of hypotonic lysis buffer (5 mM Tris, pH 7.4, 2 mM EDTA) containing the protease inhibitors leupeptin, aprotinin, benzamidine and soybean trypsin inhibitor (10 μg/ml each). […] Receptor density on the cell surface was assessed using methods previously described (24). […] Bound radioactivity was separated by filtration and washing over GF/C glass fiber filters. Cyclic AMP content of attached mouse smooth muscle cells in culture exposed to 10 µM isoproterenol or carrier for 10 min was measured by an acetylated radioimmunoassay method as described (19). Adenylyl cyclase activity was measured in membranes prepared as above using column chromatography as previously described (25).

adenylyl cyclase = test: Adenylyl cyclase activity in tracheal smooth muscle cell membranes; assay type: biochemical, mouse; settings: for maximal isoproterenol stimulated adenylyl cyclase activity: 10 μM isoproterenol, n=4
Procedure: as §1
Radioligand Binding and cAMP Studies. To prepare membranes from lung tissue, lungs from an individual mouse were homogenized with a Polytron (Brinkman) in 10 ml of hypotonic lysis buffer (5 mM Tris, pH 7.4, 2 mM EDTA) containing the protease inhibitors leupeptin, aprotinin, benzamidine and soybean trypsin inhibitor (10 μg/ml each). Detached smooth muscle cells from primary cultures were processed similarly. Homogenates were centrifuged at 40,000×g for 10 min at 4° C. […] Competition data were fit to a two-site model when this fit was statistically (p<0.05) better than a one-site fit by F-test, using Prizm software (GraphPad, San Diego Calif.). Receptor density on the cell surface was assessed using methods previously described (24). […] After trypsin activity was neutralized by the addition of FCS, the cells were washed with PBS and resuspended in DMEM. […] Binding to receptors localized throughout the cell was defined as that displaced by propranolol, while cell surface binding was defined as that displaced by CGP12177 (24). Bound radioactivity was separated by filtration and washing over GF/C glass fiber filters. Cyclic AMP content of attached mouse smooth muscle cells in culture exposed to 10 µM isoproterenol or carrier for 10 min was measured by an acetylated radioimmunoassay method as described (19). Adenylyl cyclase activity was measured in membranes prepared as above using column chromatography as previously described (25).

[3] = system: airway responsiveness in conscious, unrestrained mice; test: In vivo airway responsiveness to methacholine by whole body plethysmography (Penh); set-up: species or system mouse; settings: for maximal Penh to methacholine after albuterol pretreatment: aerosolized albuterol 0.1 mg/ml for 20 min; for maximal Penh (bronchoconstriction induced by methacholine): no pretreatment
Procedure: FIG. 9. In vivo measurement of airway hyperreactivity in conscious, unrestrained mice. Airway responsiveness to methacholine was assessed using a rodent whole body plethysmography system to measure Penh (see EXPERIMENTAL PROCEDURES). The mice were first treated with aerosolized PBS to establish baseline function, which was then followed by increasing doses of aerosolized methacholine. On a separate day, the same mice were first pretreated with aerosolized albuterol (0.1 mg/ml) for 20 min. Penh values are reported as percent of the PBS (baseline) value. Bronchoconstriction was greatest in the untreated, NTG control mice (n=12) with a maximal increase in Penh of 558±42%. Pretreatment with albuterol lowered the maximal increase in Penh to 373±33% (p<0.02). The maximum Penh achieved in the transgenic mice (250±26%, n=9) was less than that of both the untreated (p<0.001) and the pretreated NTG mice (p<0.02).
In Vivo Airway Physiology. Airway responsiveness to methacholine was measured noninvasively in conscious, unrestrained mice using a whole body plethysmograph (Buxco Electronics, Troy N.Y.) (28). Using this system, the volume changes that occur during a normal respiratory cycle are recorded as the pressure difference between the animal-containing chamber and a reference chamber. The resulting signal is used to calculate respiratory frequency, minute volume, tidal volume, and enhanced pause (Penh). Penh is a unitless value that is a function of the peak inspiratory (PIP) and peak expiratory (PEP) pressures and the timing of expiration and is calculated as: […]
where Pause is the ratio of time spent in the last third of expiration relative to early expiration. […] Mice were placed in the chamber and allowed to adjust to their surroundings for 10 min. They were then exposed to aerosolized PBS (to establish baseline), followed by increasing concentrations of methacholine (2.5 to 80 mg/ml). Aerosolization was for 3 min and respiratory measurements were recorded and averaged for the subsequent 5 min after each dose. The degree of bronchoconstriction was expressed as the percent change in Penh relative to the PBS baseline. On a separate day, the mice were submitted to the same protocol except that they were first treated with aerosolized albuterol (0.1 mg/ml) for 20 min. The concentration-response data for each individual mouse were fit to a sigmoid curve by an iterative least squares technique, and the dose of methacholine required to double baseline Penh (ED200) was derived.

tracheal rings = test: Ex vivo tracheal ring contractility / relaxation (organ bath)
Procedure: Ex vivo assessment of airway function in transgenic and nontransgenic mice. Tracheal contractility was measured using ring preparations that were mounted on wires connected to pressure transducers and immersed in organ baths. The absolute contractile force evoked by acetylcholine is shown in (A). […] Rings were pre-contracted to the same extent with 10 μM acetylcholine for these studies. […] Curves shown represent the mean±SE of data generated from four different mice in each group.
Ex vivo Smooth Muscle Studies. […] Briefly, tracheas were excised and dissected free of surrounding tissues and cut into rings of approximately 5 mm in length. The trachea rings were mounted on stainless steel wires connected to isometric force transducers. […] Each tracheal ring was stretched to a tension of 5 mN, an optimal passive tension for maximizing active force (27). After a 20 min equilibration period, contraction/relaxation cycles with 10 μM acetylcholine were performed until consistent forces were observed. Cumulative concentration-isometric force curves were then generated to acetylcholine (1 nM-30 μM). After rinsing, tracheas were contracted with 10 μM acetylcholine (approximately the ED80) and cumulative concentration-relaxation curves were generated to isoproterenol (30 pM-10 μM). Concentration-response relations were fitted to a logistic equation (26).

[4] = target: stimulatory guanine nucleotide binding protein (Gs) (mouse) (UniProt P63094); test: cell-based or functional assay
stimulatory guanine nucleotide binding protein (Gs) (mouse), sequence (P63094 2-394): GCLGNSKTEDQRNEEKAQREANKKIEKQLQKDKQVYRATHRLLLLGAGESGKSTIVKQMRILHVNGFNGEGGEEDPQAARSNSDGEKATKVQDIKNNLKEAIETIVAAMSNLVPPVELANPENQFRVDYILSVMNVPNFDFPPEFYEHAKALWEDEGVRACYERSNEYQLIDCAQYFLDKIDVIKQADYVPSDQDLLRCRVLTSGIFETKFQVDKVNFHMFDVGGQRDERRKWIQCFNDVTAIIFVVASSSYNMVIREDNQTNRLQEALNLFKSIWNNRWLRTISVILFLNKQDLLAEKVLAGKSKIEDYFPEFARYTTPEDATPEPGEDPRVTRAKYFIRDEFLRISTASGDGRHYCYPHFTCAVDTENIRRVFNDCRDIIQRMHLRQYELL

With `CC(C)NCC(O)c1ccc(O)c(O)c1` (stereo not drawn) [isoproterenol] the “proportion of receptors in the high affinity state (% RH)” value (β2AR [1]) was 36±6.7%, the “isoproterenol-stimulated cAMP content” value (β2AR [2]; nontransgenic airway smooth muscle cells, 10 min, n=5) was 2.05 ± 0.10 pmol/mL and the “isoproterenol-stimulated cAMP, percent-stimulation over basal” value (β2AR [2]; nontransgenic cells) was about 50%. The “percent isoproterenol stimulation of adenylyl cyclase over basal” value (adenylyl cyclase; nontransgenic membranes) was about 46%, the “maximal isoproterenol stimulated adenylyl cyclase activity” value (adenylyl cyclase; nontransgenic membranes) was 251 ± 7.3 pmol/min/mg and the “percent isoproterenol stimulation of adenylyl cyclase over basal” value (adenylyl cyclase; transgenic membranes) was about 125%. For the same molecule, the “maximal isoproterenol stimulated adenylyl cyclase activity” value (adenylyl cyclase; transgenic membranes) was 609 ± 74.7 pmol/min/mg, the “maximal Penh to methacholine after acute albuterol in mice pretreated with isoproterenol” value ([3]; SMP8-β2AR transgenic mice, isoproterenol by osmotic minipump for three continuous days) was 128±1 % of baseline and the “maximal extent of relaxation, transgenic vs nontransgenic rings” value (tracheal rings; isoproterenol, rings pre-constricted with 10 μM acetylcholine) was “equivalent”.
For “endogenous β-adrenergic receptor of tracheal smooth muscle cells from nontransgenic mice (from UniProt P18762 1-418)”, the proportion of receptors in the high affinity state (% RH), isoproterenol competition of [125I]CYP binding in the absence of GTP [4] was 36%.
With `Cc1ccc(OCC(O)C(C)NC(C)C)c2c1CCC2` (stereo not drawn) [ICI 118,551] the “effect on enhanced isoproterenol-induced relaxation in SMP8-β2AR mice” value (tracheal rings; pretreatment 0.1 μM) was “blocked; also recorded: abolished”.
With `CC(C)(C)NCC(O)c1ccc(O)c(CO)c1` (stereo not drawn) [albuterol] the “methacholine-induced increase in Penh after albuterol pretreatment” value ([3]; SMP8-β2AR mice, methacholine up to 80 mg/ml) was “no increase in Penh; also recorded: no methacholine-induced bronchoconstriction was observed”, the “maximal Penh to methacholine after albuterol pretreatment” value ([3]; SMP8-β2AR transgenic mice) was 146±12 % of baseline and 138±11 % of baseline and the “maximal Penh to methacholine after albuterol pretreatment” value ([3]; nontransgenic mice) was 373±33 % of baseline.
With `CC(=O)OC(C)C[N+](C)(C)C` (stereo not drawn) [methacholine] the “maximal Penh (bronchoconstriction induced by methacholine)” value ([3]; SMP8-β2AR transgenic mice, n=9) was 250±26 % of baseline, the “ED200 (dose of methacholine required to double baseline Penh)” value ([3]; SMP-β2AR mice) was 35.7 ± 10.6 mg/mL and the “ED200 (dose of methacholine required to double baseline Penh)” value ([3]; nontransgenic mice) was 12.1 ± 1.90 mg/mL. The “maximal Penh (bronchoconstriction induced by methacholine)” value ([3]; nontransgenic mice, n=12) was 558±42 % of baseline.
